# In US9073926B2, “Heterocyclic compounds containing a pyrrolopyridine or benzimidazole core” (Boehringer Ingelheim International GmbH, priority 2009, dated 2015):
# Molecular target: Human RSK2 (Homo sapiens (Human), UniProt P51812)
# Experiment: Human RSK2 Assay (Kinase Glo Plus, residual ATP)
# Format: biochemical
# Conditions: 0.75 nM His-RSK2, 0.75 μM ATP, 1.0 μM S6 Kinase/RSK Substrate Peptide 1
# Method in brief: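 His-RSK2 (0.75 nM) with 0.75 μM ATP and 1.0 μM S6 kinase/RSK substrate peptide in HEPES pH 7.5 buffer with Mg/Mn, 90 min at 28° C. Residual ATP read by Kinase Glo Plus luminescence; percent of control fitted to a 4-parameter logistic, IC50 taken as inflection point.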
# Chain of Human RSK2 (P51812 whole entry): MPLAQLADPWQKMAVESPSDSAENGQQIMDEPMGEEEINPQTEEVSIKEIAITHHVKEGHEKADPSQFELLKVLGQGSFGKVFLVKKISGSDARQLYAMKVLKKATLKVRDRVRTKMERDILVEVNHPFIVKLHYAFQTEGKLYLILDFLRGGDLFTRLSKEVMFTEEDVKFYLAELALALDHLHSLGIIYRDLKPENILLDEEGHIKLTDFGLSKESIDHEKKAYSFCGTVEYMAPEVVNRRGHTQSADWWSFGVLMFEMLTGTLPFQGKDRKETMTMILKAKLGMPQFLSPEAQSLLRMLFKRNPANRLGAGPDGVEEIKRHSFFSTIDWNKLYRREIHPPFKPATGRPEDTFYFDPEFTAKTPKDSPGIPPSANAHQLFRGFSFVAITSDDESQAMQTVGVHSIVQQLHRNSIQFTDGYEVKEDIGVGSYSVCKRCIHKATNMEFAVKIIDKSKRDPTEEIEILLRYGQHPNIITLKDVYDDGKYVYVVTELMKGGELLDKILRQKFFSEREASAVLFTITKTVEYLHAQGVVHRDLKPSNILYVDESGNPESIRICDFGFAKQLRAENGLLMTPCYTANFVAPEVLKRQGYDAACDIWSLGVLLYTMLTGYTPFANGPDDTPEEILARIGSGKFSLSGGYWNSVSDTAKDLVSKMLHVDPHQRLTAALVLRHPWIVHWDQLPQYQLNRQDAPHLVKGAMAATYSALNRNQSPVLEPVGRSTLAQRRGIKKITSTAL
smiles,measurement,value
"CC1CCNC(=O)c2cc3ccc(C(=O)Nc4cnc5c(cnn5CC5CCOC5)c4)nc3n21 (stereo not drawn) [Example 35, 10-methyl-6-oxo-N-[1-(tetrahydrofuran-3-ylmethyl)-1H-pyrazolo[3,4-b]pyridin-5-yl]-7,8,9,10-tetrahydro-6H-pyrido[3′,2′:4,5]pyrrolo[1,2-a][1,4]diazepine-2-carboxamide]",IC50,1.6 nM
"Cc1nc(-c2cccc(NC(=O)c3ccc4nc5n(c4c3)CCCNC5=O)c2)cs1 [Example 7, N-[3-(2-methyl-1,3-thiazol-4-yl)phenyl]-1-oxo-2,3,4,5-tetrahydro-1H-[1,4]diazepino[1,2-a]benzimidazole-8-carboxamide]",IC50,1700 nM
"CC1(C)CNC(=O)c2cc3ccc(C(=O)Nc4cnc5ccccc5c4)nc3n2C1 [Example 39, 9,9-dimethyl-6-oxo-N-(quinolin-3-yl)-7,8,9,10-tetrahydro-6H-pyrido[3′,2′:4,5]pyrrolo[1,2-a][1,4]diazepine-2-carboxamide]",IC50,91 nM
"O=C(Nc1cc(-c2ccccc2)no1)c1ccc2nc3n(c2c1)CCCNC3=O [Example 19, 1-oxo-N-(3-phenyl-1,2-oxazol-5-yl)-2,3,4,5-tetrahydro-1H-[1,4]diazepino[1,2-a]benzimidazole-8-carboxamide]",IC50,290 nM
"Cc1cc(NC(=O)c2ccc3cc4n(c3n2)[C@H](C)CNC4=O)no1 [Example 84, (9R)-9-methyl-N-(5-methyl-1,2-oxazol-3-yl)-6-oxo-6,7,8,9-tetrahydropyrido[3′,2′:4,5]pyrrolo[1,2-a]pyrazine-2-carboxamide]",IC50,6.6 nM
"CC1(C)CNC(=O)c2cc3ccc(C(=O)Nc4cnc5c(cnn5C5CCOCC5)c4)nc3n2C1 [Example 34, 9,9-dimethyl-6-oxo-N-[1-(tetrahydro-2H-pyran-4-yl)-1H-pyrazolo[3,4-b]pyridin-5-yl]-7,8,9,10-tetrahydro-6H-pyrido[3′,2′:4,5]pyrrolo[1,2-a][1,4]diazepine-2-carboxamide]",IC50,62 nM
"CCn1c(NC(=O)c2ccc3cc4n(c3n2)[C@@H](C)[C@@H](C)NC4=O)nc2ccccc21 (relative stereo) [Example 73, N-(1-ethyl-1H-benzimidazol-2-yl)- cis-8,9-dimethyl-6-oxo-6,7,8,9-tetrahydropyrido[3′,2′:4,5]pyrrolo[1,2-a]pyrazine-2-carboxamide]",IC50,11.6 nM
"C[C@@H]1CNC(=O)c2cc3ccc(C(=O)Nc4cnc5ccccc5c4)nc3n21 [Example 64, (9R)-9-methyl-6-oxo-N-(quinolin-3-yl)-6,7,8,9-tetrahydropyrido[3′,2′:4,5]pyrrolo[1,2-a]pyrazine-2-carboxamide]",IC50,3 nM
"Cc1cc(NC(=O)c2ccc3cc4n(c3n2)[C@@H](C)CNC4=O)no1 [Example 83, (9S)-9-methyl-N-(5-methyl-1,2-oxazol-3-yl)-6-oxo-6,7,8,9-tetrahydropyrido[3′,2′:4,5]pyrrolo[1,2-a]pyrazine-2-carboxamide]",IC50,380 nM
"CC1CCNC(=O)c2cc3ccc(C(=O)Nc4cnn(Cc5ccccc5)c4)nc3n21 (stereo not drawn) [Example 46, N-(1-benzyl-1H-pyrazol-4-yl)-10-methyl-6-oxo-7,8,9,10-tetrahydro-6H-pyrido[3′,2′:4,5]pyrrolo[1,2-a][1,4]diazepine-2-carboxamide]",IC50,0.39 nM
"CC(C)n1ncc2cc(NC(=O)c3ccc4cc5n(c4n3)CCCNC5=O)cnc21 [Example 30, 6-oxo-N-[1-(propan-2-yl)-1H-pyrazolo[3,4-b]pyridin-5-y]-7,8,9,10-tetrahydro-6H-pyrido[3′,2′:4,5]pyrrolo[1,2-a][1,4]diazepine-2-carboxamide]",IC50,25 nM
"CC1(C)CNC(=O)c2cc3ccc(C(=O)Nc4cc(C5CC5)on4)nc3n2C1 [Example 90, N-(5-cyclopropyl-1,2-oxazol-3-yl)-9,9-dimethyl-6-oxo-7,8,9,10-tetrahydro-6H-pyrido[3′,2′:4,5]pyrrolo[1,2-a][1,4]diazepine-2-carboxamide]",IC50,43 nM
